According to patent US12410163B2, “Compounds as GLP-IR agonists” (Terns Pharmaceuticals, Inc., priority 2022, dated 2025):

What was measured:
[1] = Rat pharmacokinetics; format: in vivo; design: AUC: concentration or dose not given beside the values; conditions: male Sprague-Dawley rats, plasma, route not given; for half-life: read-out: Rat T1/2 (converted)
Description: Intravenous dosing: Compounds were formulated at 0.5 mg/mL in a solution comprising 5% polyethylene glycol 400 and 95% (12% (w/v) sulfobutyl-β-cyclodextrin in water) (v/v). Formulated compounds were sterile filtered through a 0.22 micron filter before dosing. Compounds were administered to male, 7-11-week-old Sprague-Dawley rats by jugular vein cannula infusion over 30 minutes at a dose of 1 mg/kg. […]
Sample collection: Blood collections of about 0.2 mL per time point were performed from jugular vein or other suitable site of each animal, into pre-chilled commercial EDTA-K2 tubes and placed on wet ice until centrifugation. Blood samples were processed for plasma by centrifugation at approximately 4° C., 3,200 g for 10 min. Plasma was collected and transferred into pre-labeled 96 well plate or polypropylene tubes, quick frozen over dry ice and kept at −60° C. or lower until LC-MS/MS analysis.
Data analysis: Plasma concentration versus time data was plotted in graph and analyzed by non-compartmental approaches using the Phoenix WinNonlin 6.3 software program. Related PK parameters were calculated according to dosing route, e.g., CL, Vdss and C0 for intravenous administration, Cmax, Tmax or % F for extravascular administration, and T1/2, AUC(0-t), AUC(0-inf), MRT(0-t), MRT(0-inf) for all routes.

[2] = Rat pharmacokinetics; format: in vivo; conditions: male Sprague-Dawley rats, plasma, route not stated in table (IV or oral gavage 10 mL/kg of 0.3 or 0.6 mg/mL)
[3] = biological target: T1, human GLP-1R receptor (Homo sapiens, UniProt P43220); test: GLP-1R low expression cell assay (cAMP TR-FRET, CHO-K1_hGLP-1Rlow_clone10); format: cell-based; conditions: CHO-K1_hGLP-1Rlow_clone10 cells, percent activation relative to control GLP-1 peptide
T1 construct: expressed in transfected cells
Summary of the method: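 CHO-K1 cells stably expressing low surface levels of human GLP-1R were exposed to 10-point, 3-fold compound dilutions for 30 min at 25 °C, then cAMP was read by TR-FRET (Eu-cAMP/ULight-anti-cAMP, 15 min). EC50 came from Hill fits of percent activation relative to a GLP-1 control agonist, duplicate wells.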

T1 sequence (P43220 24-463): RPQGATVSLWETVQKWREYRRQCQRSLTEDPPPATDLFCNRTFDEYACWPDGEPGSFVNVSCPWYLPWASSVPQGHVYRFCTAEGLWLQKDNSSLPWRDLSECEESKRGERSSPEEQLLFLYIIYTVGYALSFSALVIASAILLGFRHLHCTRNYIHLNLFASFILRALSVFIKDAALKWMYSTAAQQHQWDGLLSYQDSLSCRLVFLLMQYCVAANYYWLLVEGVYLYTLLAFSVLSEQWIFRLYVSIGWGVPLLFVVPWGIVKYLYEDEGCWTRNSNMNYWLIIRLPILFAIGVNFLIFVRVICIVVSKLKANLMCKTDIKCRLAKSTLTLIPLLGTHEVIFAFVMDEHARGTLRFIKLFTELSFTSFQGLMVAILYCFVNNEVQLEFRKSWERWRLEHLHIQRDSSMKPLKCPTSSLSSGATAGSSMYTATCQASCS

Row | SMILES | AUC [1] | half-life [1] | Cmax [2] | EC50 [3]
1 | N#Cc1ccc(COc2cccc(N3CCN(Cc4nc5ccc(C(=O)O)cc5n4Cc4cncs4)[C@@H]4C[C@@H]43)n2)c(F)c1 (single isomer, unassigned) [Compound 1, 2-((5-(6-((4-cyano-2-fluorobenzyl)oxy)pyridin-2-yl)-2,5-diazabicyclo[4.1.0]heptan-2-yl)methyl)-1-(thiazol-5-ylmethyl)-1H-benzo[d]imidazole-6-carboxylic Acid] | 71.8 ± 90.3 ng·h/mL | 4.58 h | 34.7 ± 13.7 ng/mL | < 5 nM
2 | N#Cc1ccc(COc2cccc(N3CCN(Cc4nc5ccc(C(=O)O)cc5n4Cc4cncs4)[C@H]4C[C@H]43)n2)c(F)c1 (single isomer, unassigned) [Compound 2, 2-((5-(6-((4-Cyano-2-fluorobenzyl)oxy)pyridin-2-yl)-2,5-diazabicyclo[4.1.0]heptan-2-yl)methyl)-1-(thiazol-5-ylmethyl)-1H-benzo[d]imidazole-6-carboxylic Acid] | 63.5 ± 11.1 ng·h/mL | 2.41 h | 44.1 ± 6.5 ng/mL | 50 to 100 nM
3 | N#Cc1ccc(COc2cccc([C@H]3CCN(Cc4nc5ccc(C(=O)O)cc5n4Cc4cncs4)[C@@H]4C[C@H]34)n2)c(F)c1 (single isomer, unassigned) [Compound 4, 2-((5-(6-((4-Cyano-2-fluorobenzyl)oxy)pyridin-2-yl)-2-azabicyclo[4.1.0]heptan-2-yl)methyl)-1-(thiazol-5-ylmethyl)-1H-benzo[d]imidazole-6-carboxylic Acid] | 86.3 ± 27.2 ng·h/mL | 0.92 h | 70 ± 32 ng/mL | < 5 nM
4 | N#Cc1ccc(COc2cccc([C@@H]3CCN(Cc4nc5ccc(C(=O)O)cc5n4Cc4cncs4)[C@@H]4C[C@@H]43)n2)c(F)c1 (single isomer, unassigned) [Compound 5, 2-((5-(6-((4-Cyano-2-fluorobenzyl)oxy)pyridin-2-yl)-2-azabicyclo[4.1.0]heptan-2-yl)methyl)-1-(thiazol-5-ylmethyl)-1H-benzo[d]imidazole-6-carboxylic Acid] | 418 ± 49.6 ng·h/mL | 1.31 h | 282 ± 4.04 ng/mL | 5 to 50 nM
5 | N#Cc1ccc(COc2cccc([C@H]3CCN(Cc4nc5ccc(C(=O)O)cc5n4Cc4cncs4)[C@H]4C[C@@H]34)n2)c(F)c1 (single isomer, unassigned) [Compound 14, 2-((5-(6-((4-Cyano-2-fluorobenzyl)oxy)pyridin-2-yl)-2-azabicyclo[4.1.0]heptan-2-yl)methyl)-1-(thiazol-5-ylmethyl)-1H-benzo[d]imidazole-6-carboxylic Acid] | 66.8 ± 7.06 ng·h/mL | 0.645 h | 59.3 ± 5.68 ng/mL | 5 to 50 nM
6 | N#Cc1ccc(COc2cccc([C@@H]3CCN(Cc4nc5ccc(C(=O)O)cc5n4Cc4cncs4)[C@H]4C[C@@H]34)n2)c(F)c1 (single isomer, unassigned) [Compound 15, 2-((5-(6-((4-Cyano-2-fluorobenzyl)oxy)pyridin-2-yl)-2-azabicyclo[4.1.0]heptan-2-yl)methyl)-1-(thiazol-5-ylmethyl)-1H-benzo[d]imidazole-6-carboxylic Acid] | 71.7 ± 16.1 ng·h/mL | 0.597 h | 77.4 ± 16.2 ng/mL | 5 to 50 nM
7 | CC1(c2ccc(C#N)cc2F)Oc2cccc(C3CCN(Cc4nc5ccc(C(=O)O)cc5n4Cc4cncs4)CC3)c2O1 (stereo not shown) [Compound 18] | 84.9 ± 32.2 ng·h/mL | 0.89 h | 89.5 ± 23.6 ng/mL | < 5 nM

More lines, now with the values ahead:

Row | AUC [1] | half-life [1] | Cmax [2] | EC50 [3] | SMILES
8 | 118 ± 10 ng·h/mL | 1.19 h | 64.5 ± 17.8 ng/mL | < 5 nM | N#Cc1ccc(COc2cccc(N3CCN(Cc4nc5ccc(C(=O)O)cc5n4C[C@@H]4CCO4)[C@@H]4C[C@@H]43)n2)c(F)c1 (single isomer, unassigned) [Compound 43]
9 | 22.9 ± 30 ng·h/mL | 0.578 h | 15.5 ± 7.15 ng/mL | 5 to 50 nM | N#Cc1ccc(COc2ccnc(N3CCN(Cc4nc5ccc(C(=O)O)cc5n4Cc4cncs4)[C@@H]4C[C@@H]43)n2)c(F)c1 [Compound 20, 2-((5-(4-((4-Cyano-2-fluorobenzyl)oxy)pyrimidin-2-yl)-2,5-diazabicyclo[4.1.0]heptan-2-yl)methyl)-1-(thiazol-5-ylmethyl)-1H-benzo[d]imidazole-6-carboxylic Acid]
10 | 44.2 ± 8.62 ng·h/mL | 2.78 h | 28.3 ± 6.42 ng/mL | < 5 nM | CC1(c2ccc(C#N)cc2F)Oc2cccc(N3CCN(Cc4nc5ccc(C(=O)O)cc5n4CC4(C#N)CC4)C4CC43)c2O1 (stereo not shown) [Compound 40, 2-((5-(2-(4-Cyano-2-fluorophenyl)-2-methylbenzo[d][1,3]dioxol-4-yl)-2,5-diazabicyclo[4.1.0]heptan-2-yl)methyl)-1-((1-cyanocyclopropyl)methyl)-1H-benzo[d]imidazole-6-carboxylic Acid]
11 | 9.48 ng·h/mL | – | 9.62 ng/mL | < 5 nM | CCn1nncc1Cn1c(CN2CCN(c3cccc(OCc4ccc(C#N)cc4F)n3)[C@H]3C[C@H]32)nc2ccc(C(=O)O)cc21 [Compound 45, 2-((5-(6-((4-Cyano-2-fluorobenzyl)oxy)pyridin-2-yl)-2,5-diazabicyclo[4.1.0]heptan-2-yl)methyl)-1-((1-ethyl-1H-1,2,3-triazol-5-yl)methyl)-1H-benzo[d]imidazole-6-carboxylic Acid]
